In patent US10130590B2, “Methods of treating cancer with atovaquone-related compounds” (DANA-FARBER CANCER INSTITUTE, INC., priority 2013, dated 2018):

What was measured:
Assay type in all cases: cell-based
[1] = system: INA-6, U266 and HEL cells; assay: Annexin V/PI flow cytometry in STAT3-dependent cancer cells; conditions: INA-6 15 μM 24 hours; U266 and HEL 20 μM 48 hours
Procedure: (§1) Annexin V/PI staining was performed using Annexin V:FITC Apoptosis Detection Kit I (BD Biosciences). Staining for cell cycle analysis was performed as previously described (267). Staining for cell-surface receptors was performed in 50 μl PBS+2% FBS with 2 μl antibody to IL6R (BioLegend #352803) or 5 μl antibody to gp130 (BD Biosciences #555757) for 20 minutes on ice in the dark. Cells were washed twice, then resuspended in 300 μl of the same buffer. Samples were analyzed on a BD FACSCanto II machine. Transfection and siRNA Cells were reverse-transfected using Lipofectamine RNAiMAX (Invitrogen); the culture medium was changed 24 hours later. Control siRNA (D-001210-02) and REDD1 siRNA (M-010855-01) were from Thermo Scientific Dharmacon.
Next, the effect of atovaquone on the growth and survival of STAT3-dependent cancer cells was examined Survival of the multiple myeloma cell line INA-6 is exquisitely dependent on IL-6 added to culture medium and resultant STAT3 activation. […] The other cell lines with constitutively-active STAT3, U266 and HEL, were also killed by atovaquone.

K562 and AML2 cells = assay: Annexin V/PI and cell cycle analysis, K562 and AML2; conditions: K562 20 μM, AML2 15 μM, 48 hours
Procedure: as §1
K562 and AML2 cells treated with atovaquone (20 and 15 μM, respectively) for 48 hours. […] Therefore, it was hypothesized that atovaquone kills cancer cells through STAT3-related and STAT3-independent mechanisms. Accordingly, the hypothesis that atovaquone inhibited another common pathway in cancer pathogenesis was considered. In particular, the mTOR pathway, which is known to be involved in cancer cell growth and survival, was investigated.

mTOR pathway = assay: Western blot of mTOR pathway markers (S6, S6K, 4E-BP1)
Procedure: Western blotting was performed as previously described (Battle T E, Arbiser J, & Frank D A (2005) The natural product honokiol induces caspase dependent apoptosis in B-cell chronic lymphocytic leukemia (B-CLL) cells. Blood 106(2):690-697). Antibodies to phospho-MAPK (9101), total MAPK (9102), phospho-Y705 STAT3 (9131), phospho-S6 (2215), total S6 (2217), phospho-4E-BP1 (9451), total 4E-BP1 (9644), total RSK (9355), phospho-S6K (9234, 85 used at 1:5000), total S6K (2708), phospho-eIF2α (9721, used at 1:1000), total eIF2α (5324), ATF4 (11815, used at 1:1000), PDGFRβ (3169), IGF1Rβ (9750), EGFR (2232), and HER2 (2242) were from Cell Signaling Technology. Phospho-RSK antibody was from R&D (AF889). Antibodies to total STAT3 (sc-482) and gp130 (sc-656, used at 1:1000) were from Santa Cruz Biotechnology. Phospho-S727 STAT3 antibody was described previously (229). REDD1 antibody was from Proteintech (10638-1-AP, used at 1:1000). Antibody recognizing full-length and cleaved ATF6 was from Abcam (ab122897, used at 1:1000). Antibodies to tubulin (T5168) and beta actin (A5316) were from Sigma. All antibodies were used at 1:10000 dilution for western blot unless otherwise noted. For immunoprecipitations, cells were lysed in 500 μl lysis buffer (0.5% NP-40, 150 mM NaCl, 50 mM Tris pH 7.5, with protease and phosphatase inhibitors freshly added at 1:100 [Pierce, PI78443]) on ice for 15 minutes, then centrifuged for 10 minutes at 14,000 RPM and 4° C. The supernatant was transferred to a new tube and incubated with 10 μl JAK2 antibody (Santa Cruz sc-278) or a mix of two TYK2 antibodies, 10 μl of each (Santa Cruz sc-5271 and Cell Signaling Technology 9312). Immunoprecipitation was performed overnight at 4° C. with rotation. The next day, 75 μl of protein A/G beads (Santa Cruz sc-2003) were washed twice in lysis buffer, then incubated with immunoprecipitates overnight as before. The next day, the beads were spun down (1 min. at 7,500 RPM and 4° C.) and washed 3 times with 650 μl lysis buffer for 10 minutes at 4° C. with rotation, then boiled in 50 μl sample buffer+10% β-mercaptoethanol. For Western blot, 20 μl were loaded per lane. For detection of phospho-tyrosine, a mixture of two pan-phospho-tyrosine antibodies (Cell Signaling Technology 9411 and 9416, 1:1000 of each) was used. Antibody to phospho-Y1007/1008 JAK2 was from Cell Signaling 86 Technology (3771, used at 1:1000). Antibody to phospho-Y570 JAK2 was from Millipore (09-241, used at 1:1000). Luminometric Assays Luciferase reporter cell lines were described previously (186). Firefly luciferase values were normalized by concurrent cell viability. Cell viability was measured as ATP-dependent luminescence by Cell Titer Glo (Promega).
K562 cells were treated with atovaquone (20 μM) or rapamycin (10 nM) for 1 hour or 5 hours, then analyzed by Western blot. […] The requirement for prolonged treatment to observe mTOR inhibition raised the possibility that this effect was mediated by an induced factor. To test this hypothesis, cells were pretreated with cycloheximide, a protein synthesis inhibitor. K562 cells were pre-treated with vehicle or cycloheximide (2 μg/ml) for 1 hour, then treated with vehicle or atovaquone (20 μM) for 5 hours. […] Similar results were obtained with actinomycin D, an inhibitor of mRNA synthesis.
To evaluate the role of REDD1, RNA interference was used to knock down its expression in adherent SKBR3 cells, given the relative ease of introducing siRNA into these cells. SKBR3 cells were transfected with control or REDD1 siRNA for 48 hours, then treated with atovaquone (25 μM) for 4 hours.
Next, U266 cells were treated with 12.5 or 25 μM buparvaquone or 1, 5, or 25 μM 2-(4-(trans-decahydronaphth-2-yl)butyl)-3-hydroxy-1,4-naphthoquinone (Sigma analog), or DMSO vehicle control, for 2.5 hours, after which cells were harvested and immunoblots were performed with antibodies for total and phospho STAT3 and total and phospho S6.

K562 and U266 cells = assay: Gene expression microarrays and qRT-PCR for atovaquone-induced genes
Procedure: Gene expression was analyzed in triplicate, normalized by 18S rRNA, and expressed as mean±SEM. For gene expression microarrays, RNA was isolated by Trizol, purified further on RNeasy columns, and profiled using Affymetrix Human Gene 1.0 ST arrays (Affymetrix). Results were deposited under GEO Accession: GSE46575.
To discover the gene whose induction by atovaquone was responsible for mTOR inhibition, gene expression microarrays were performed in K562 and U266 cells. It was reasoned that induction of the causative factor must be common to all cell lines in which atovaquone inhibits the mTOR pathway. […] Of these, REDD1 is a known negative regulator of mTOR, whose activity is dependent on the TSC1/2-complex.

[2] = K562, 20 μM, only after 5 hours, efficacy comparable to rapamycin

SMILES: O=C1C(O)=C([C@H]2CC[C@H](c3ccc(Cl)cc3)CC2)C(=O)c2ccccc21 [atovaquone, trans-2-[4-(4-chlorophenyl)cyclohexyl]-3-hydroxy-1,4-naphthalenedione]
- apoptosis (annexin V and PI staining) [1]: inducing apoptotic cell death
- mode of loss of viability (K562 and AML2 cells): apoptosis and cell cycle arrest
- phosphorylation of 4E-BP1 (mTOR pathway; [2]): inhibited phosphorylation of 4E-BP1
- phosphorylation of ribosomal protein S6 (mTOR pathway; [2]): inhibited phosphorylation
- phosphorylation of p70S6K (mTOR pathway; K562, 6 hours): inhibited phosphorylation of p70S6K
- inhibition of S6 phosphorylation after cycloheximide pre-treatment (mTOR pathway; K562 and U266, cycloheximide 2 μg/ml 1 hour): blocked in the presence of cycloheximide
- inhibition of S6 phosphorylation after REDD1 knock down (mTOR pathway; SKBR3, REDD1 siRNA 48 hours, 25 μM 4 hours): largely blocked
- REDD1 expression (K562 and U266 cells): inducing the expression of REDD1
